Results from patent publication US20230271958A1, “SALT AND CRYSTAL FORM OF DIHYDROPYRIDO[2,3-d]PYRIMIDINE DERIVATE” (NANJING CHIA TAI TIANQING PHARMACEUTICAL CO., LTD., priority 2020, published 2023).

Experiment: Solid stability of crystal form A (chemical purity by HPLC)
Type: physicochemical
Details: for Purity (%) after placement (day 20): exposed to air for 20 d; for Purity (%) before placement (day 0): exposed to air
Protocol: Hot and humid conditions: temperature: 40° C., relative humidity: 75%, crystal form A was exposed to air for 20 d • b. High temperature conditions: temperature: 60° C., crystal form A was exposed to air for 20 d
The chemical purity of crystal form A was measured by HPLC.
Chromatographic column: ACE Excel 5 Super C18 (4.6×150 mm, 5 μm)
Detection wavelength: 230 nm, column temperature: 30° C., flow rate: 1.0 mL/min
Mobile phase: diammonium hydrogen phosphate (1.32 g) was weighed and dissolved in water (1000 mL), the solution was adjusted with phosphoric acid until the pH of the solution was 7.2, filtered, and used as A phase; and acetonitrile was used as B phase.

[1] = condition a: 40° C., relative humidity 75%

- Purity (%) after placement (day 20) [1]: 99.89%
- Purity (%) before placement (day 0) [1]: 99.84%
- Purity (%) after placement (day 20) (condition b: 60° C.): 99.88%
- Purity (%) before placement (day 0) (condition b: 60° C.): 99.84%
Structure (SMILES): CC(C)NC[C@@H](C(=O)N1CCN(c2ncnc3c2[C@H](C)CC(=O)N3)[C@H]2C[C@H]21)c1ccc(Cl)cc1.O=C(O)/C=C/C(=O)O [crystal form A]
